Test results from patent US20160067161A1, “COSMETIC OR PHARMACEUTICAL COMPOSITION FOR RESISTING SKIN AGEING THROUGH AN ANTI-INFLAMMATORY ACTION” (GIULIANI S.P.A., priority 2013, published 2016).

Columns and labels:
NCTC 2544 cells = assay: ROS antioxidant test (DCFH-DA spectrofluorometry) on NCTC 2544 cells; assay type: cell-based, human; settings: 500 μM, 1.5 hours (FIG. 3); for decrease in intracellular concentration of ROS produced compared with H2O2 control: test compound at 500 nM, 1 μM, 1 mM, α-tocopherol 250 μg/ml (580 μM)
From the text: Samples of a compound of the invention, N^1-methylspermidine trihydrochloride salt, i.e. N-(3-aminopropyl)-N^1-methyl-1,4-butanediamine 3HCl, were subjected to the following antioxidant test to reactive oxygen species (ROS).
The production of ROS was monitored spectrofluorometrically using 2′,7′-dichlorofluorescein diacetate (DCFH-DA), as described by Tobi et al. (Tobi S E, Paul N, T McMillan J. J Photochem Photobiol, B 2000: 57: 102-112).
The NCTC 2544 cells (about 80% confluence) were detached with trypsin/EDTA and seeded at a density of 5×10^4 cells per well in 96-well plates. Subsequently, the cells were treated with samples of N^1-methylspermidine, at the following concentrations: 500 nM, 1 μm and 500 μm, 1 mM (final concentration in the culture medium).
α-tocopherol (250 μg/ml, 580 μm) was used as a comparison of the antioxidant activity.
The plates were incubated at 37° C. in 5% CO2 for 1.5 hours. Cells cultured on basal medium with 2.5% FBS were used as a control.
The results are shown in the graph of FIG. 3, wherein N^1-methylspermidine trichydrochloride salt is for brevity indicated as ‘methylspermidine’.

TNF-α = assay: Anti-inflammatory test: TNF-α gene expression by qRT-PCR in LPS-treated NCTC2544 keratinocytes; assay type: cell-based, human; settings: for TNF-α expression: NCTC2544 cells + LPS 5 μg/ml, 16 hours of treatment
Description: An immortalized line of human keratinocytes NCTC2544 is used (Perry, V. P., Sanford, K. K., Evans, V. J., Hyatt, G. W., Earle, W. R., 1957: Establishment of clones of epithelial cells from human skin. J Natl Cancer Inst. 18 (5): 709-717) cultured in sterile flasks ([…]), incubated at 37° C. in a humid atmosphere at 5% CO2 in MEM (Minimum Essential Medium) added with bovine fetal serum (FBS), 2 mm L-glutamine, 1% non-essential amino acids, in the presence of 1% penicillin and streptomycin.
A 1:3 split is done every 2 days upon achieving the monolayer by washing with 1× PBS (phosphate buffer without Ca^2+ and Mg^2+) and detachment of cells with a trypsin-EDTA solution at 37° C. for 2 minutes.
Negative control: human keratinocytes NCTC2544 cultured in EMEM (EBSS) at 2.5% FBS, supplemented with 1% L-glutamine 2 mM, 1% solution of amino acids and 1% mixture of penicillin (10,000 U/ml)/streptomycin (10,000 Ug/ml) at 37° C., 5% CO2. Positive control: human keratinocytes NCTC2544 treated with lipopolysaccharide (LPS, 5 μg/ml) in EMEM (EBSS) at 2.5% FBS, supplemented with 1% L-glutamine 2 mM, 1% solution of amino acids and 1% mixture of penicillin (10,000 U/ml)/streptomycin (10,000 Ug/ml) at 37° C., 5% CO2.
The gene expression of TNF-α on NCTC2544 cells treated with the samples was evaluated by qRT-PCR.
The analysis of gene expression involves four steps:
1. Treatment of cells with the samples for 16 and 24 hours;
3. Retrotranscription in cDNA;
In the experimental conditions, in relation with the results obtained in a previous MTT test, samples of spermidine and N^1-methyl-spermidine were tested at the following concentrations: 1 μM, 500 nM and 1 mM (final concentration in the medium). Said positive and negative controls were also tested.
When the human keratinocyte cells NCTC 2544 have reached about 80% confluence, they are detached with trypsin/EDTA and seeded at a density of 1×10^6 cells/ml in 12-well plates and incubated at 37° C., 5% CO2 (24 h).
The above samples of spermidine and N^1-methyl-spermidine were dissolved in EMEM, supplemented with 2.5% FCS, 1% 2 mM L-glutamine, 1% NEAA solution and 1% penicillin (10,000 U/ml)/streptomycin ([…]).
The controls, containing only culture medium (negative control) and culture medium plus LPS ([…]) (positive control), were included in each plate. The cells were exposed to the action of the samples of spermidine and N^1-methyl-spermidine at the above concentrations of 1 μM, 500 nM and 1 mM: a total of six samples.
LPS at a concentration of 5 μg/ml was added to each well (except in the negative control). Each sample was tested in replicate.
With reference to the graphs in FIGS. 4 and 5, samples of further compounds of the invention as specified below were subjected to anti-inflammatory test on an immortalized line of human keratinocytes NCTC2544 substantially as described above, to the general part whereof reference shall be made.
The controls containing only culture medium (negative control) and culture medium plus LPS (5 μg/ml) (positive control), were included in each plate.
The cells were exposed to the action of samples of the compounds N^1-ethylspermidine, N^1-propylspermidine, N^1-isobutylspermidine at the concentrations of 1 nM and 1 μM.
The gene expression data were obtained by RT-PCR.

## CN(CCCN)CCCCN.Cl.Cl.Cl [N-(3-aminopropyl)-N^1-methyl-1,4-butanediamine 3HCl]
NCTC 2544 cells
  antioxidant activity compared with α-tocopherol (580 μM): higher antioxidant activity
  decrease in intracellular concentration of ROS produced compared with H2O2 control: decrease substantially comparable

## CN(CCCN)CCCCN [N^1-methylspermidine, N-(3-aminopropyl)-N^1-methyl-1,4-butanediamine]
TNF-α; 24 hours of treatment (FIG. 2)
  anti-inflammatory effects after 24 hours compared with 16 hours: remain almost unchanged
TNF-α; 24 hours of treatment, 500 nM (FIG. 2)
  anti-inflammatory effect compared with spermidine: significantly higher anti-inflammatory effect
TNF-α; 1 nM (FIG. 1)
  TNF-α expression: 7.94%
TNF-α; 500 nM (FIG. 1)
  TNF-α expression: 1.52%
TNF-α; all concentrations examined, 16 and 24 hours
  anti-inflammatory effect (TNF-α gene expression): anti-inflammatory effect

## NCCCCNCCCN [spermidine, reference compound]
TNF-α; 1 nM (FIG. 1)
  TNF-α expression: 13.99%

## Cc1c(C)c2c(c(C)c1O)CC[C@@](C)(CCC[C@H](C)CCC[C@H](C)CCCC(C)C)O2 [α-tocopherol, reference compound]
NCTC 2544 cells
  decrease in intracellular concentration of ROS produced compared with H2O2 control: decrease substantially comparable
